Experimental data taken from PubChem BioAssay AID328 (DTP/NCI, 2004).
Values joined by “and” are separate entries in the source; they are usually repeats but may differ in a detail not shown here. Identical values can stand only once. Toxic doses and inconclusive results are not listed.

System: BDF1 mice, P388 leukemia ip, median survival T/C
Test: NCI In Vivo Anticancer Drug Screen. Data for tumor model P388 Leukemia (intraperitoneal) in B6D2F1 (BDF1) mice
Conditions: endpoint: median survival time, higher = longer survival
Summary of the method: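 Mice carrying the transplantable tumour receive compound or vehicle. Survival is followed in each arm, and the treated measure is divided by the vehicle measure.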

[1] = dose: 100.0 mg/kg/injection, schedule: Q04DX003 (ip), vehicle: saline with Tween-80
[2] = dose: 200.0 mg/kg/injection, schedule: Q01DX009 (ip), vehicle: saline with Tween-80
[3] = dose: 200.0 mg/kg/injection, schedule: Q04DX003 (ip), vehicle: saline with Tween-80
[4] = dose: 400.0 mg/kg/injection, schedule: Q04DX003 (ip), vehicle: saline with Tween-80
[5] = dose: 50.0 mg/kg/injection, schedule: Q01DX009 (ip), vehicle: saline with Tween-80
[6] = dose: 100.0 mg/kg/injection, schedule: Q01DX009 (ip), vehicle: saline with Tween-80
[7] = dose: 50.0 mg/kg/injection, schedule: Q04DX003 (ip), vehicle: Klucel (hydroxypropylcellulose) (HPC)
[8] = dose: 100.0 mg/kg/injection, schedule: Q04DX003 (ip), vehicle: Klucel (hydroxypropylcellulose) (HPC)
[9] = dose: 400.0 mg/kg/injection, schedule: Q01DX009 (ip), vehicle: saline with Tween-80
[10] = dose: 25.0 mg/kg/injection, schedule: Q01DX009 (ip), vehicle: saline with Tween-80
[11] = dose: 12.5 mg/kg/injection, schedule: Q04DX003 (ip), vehicle: saline with Tween-80
[12] = dose: 25.0 mg/kg/injection, schedule: Q04DX003 (ip), vehicle: saline with Tween-80
[13] = dose: 50.0 mg/kg/injection, schedule: Q04DX003 (ip), vehicle: saline with Tween-80
[14] = dose: 100.0 mg/kg/injection, schedule: Q01DX001 (ip), vehicle: saline with Tween-80
[15] = dose: 50.0 mg/kg/injection, schedule: Q01DX001 (ip), vehicle: saline with Tween-80
[16] = dose: 6.25 mg/kg/injection, schedule: Q01DX009 (ip), vehicle: saline with Tween-80

With `CCCCCCCC/C=C\CCCCCCCC(=O)OC` the T/C [1] was 96 % of control, the T/C [2] was 120 % of control and the T/C [3] was 103 % of control. For the same compound, the T/C [4] was 88 % of control.
`O=S(=O)(Nc1ccc(O)cc1)c1ccccc1` was tested, and the T/C [1] was 100 % of control, the T/C [3] was 95 % of control and the T/C [4] was 104 % of control.
For `COCCCNC1=C(C#N)C(=O)NC(c2cccs2)S1` (stereo not given), the T/C [5] was 100 % of control, the T/C [6] was 117 % of control and the T/C [2] was 121 % of control.
In the case of `CCOC(=O)c1nnc(-c2ccccc2)c(-c2ccccc2)n1`, the T/C [1] was 104 % of control, the T/C [3] was 96 % of control and the T/C [4] was 89 % of control.
With `CC(C)Cc1c(N)nc(=S)[nH]c1C(=O)O` the T/C [7] was 89 % of control, the T/C [8] was 107 % of control and the T/C (dose: 200.0 mg/kg/injection, schedule: Q04DX003 (ip), vehicle: Klucel (hydroxypropylcellulose) (HPC)) was 96 % of control.
For `CC1(C)CCC2(C)CC=C3OC(=O)CCC3(C)C2C1` (stereo not given), the T/C [6] was 118 % of control, the T/C (dose: 100.0 mg/kg/injection, schedule: Q04DX003 (ip), vehicle: saline sonified) was 100 % of control and the T/C [2] was 100 % of control. For the same compound, the T/C (dose: 200.0 mg/kg/injection, schedule: Q04DX003 (ip), vehicle: saline sonified) was 100 % of control, the T/C [9] was 109 % of control and the T/C (dose: 400.0 mg/kg/injection, schedule: Q04DX003 (ip), vehicle: saline sonified) was 95 % of control.
With `[CH3][Hg][O]C(C)=O` the T/C (dose: 3.12 mg/kg/injection, schedule: Q01DX009 (ip), vehicle: Klucel (hydroxypropylcellulose) (HPC)) was 107 % of control and the T/C (dose: 6.25 mg/kg/injection, schedule: Q01DX009 (ip), vehicle: Klucel (hydroxypropylcellulose) (HPC)) was 113 % of control.
For `CS(=O)(=O)Nc1ccccc1-c1nc2ccccc2c(=O)o1`, the T/C [10] was 105 % of control, the T/C [5] was 104 % of control and the T/C [6] was 105 % of control. The T/C [2] was 103 % of control.
In the case of `O=C(O)C1C(C(=O)O)C2(Cl)C(Cl)=C(Cl)C1(Cl)C2(Cl)Cl.[Cu+2]` (stereo not given), the T/C (dose: 12.5 mg/kg/injection, schedule: Q01DX009 (ip), vehicle: saline sonified) was 100 % of control and the T/C (dose: 25.0 mg/kg/injection, schedule: Q01DX009 (ip), vehicle: saline sonified) was 110 % of control.
In the case of `COc1ccccc1/C=C(/C)[N+](=O)[O-]`, the T/C (dose: 10.0 mg/kg/injection, schedule: Q01DX010 (ip), vehicle: steriod suspending solution) was 90 % of control, the T/C (dose: 14.0 mg/kg/injection, schedule: Q01DX010 (ip), vehicle: steriod suspending solution) was 110 % of control and the T/C (dose: 22.0 mg/kg/injection, schedule: Q01DX010 (ip), vehicle: steriod suspending solution) was 120 % of control. The T/C (dose: 33.0 mg/kg/injection, schedule: Q01DX010 (ip), vehicle: carboxymethylcellulose (CMC)) was 175 % of control, the T/C (dose: 33.0 mg/kg/injection, schedule: Q01DX010 (ip), vehicle: steriod suspending solution) was 120 % of control and the T/C (dose: 50.0 mg/kg/injection, schedule: Q01DX010 (ip), vehicle: steriod suspending solution) was 120 % of control. The T/C (dose: 70.0 mg/kg/injection, schedule: Q01DX010 (ip), vehicle: steriod suspending solution) was 110 % of control and the T/C (dose: 75.0 mg/kg/injection, schedule: Q01DX010 (ip), vehicle: carboxymethylcellulose (CMC)) was 95 % of control.
In the case of `CCCCN(S(=O)(=O)C(F)(F)F)S(=O)(=O)C(F)(F)F`, the T/C (dose: 100.0 mg/kg/injection, schedule: Q01DX009 (ip), vehicle: saline) was 91 % of control, the T/C (dose: 200.0 mg/kg/injection, schedule: Q01DX009 (ip), vehicle: saline) was 91 % of control and the T/C (dose: 400.0 mg/kg/injection, schedule: Q01DX009 (ip), vehicle: saline) was 100 % of control.
In the case of `CCc1ccc(O)c(C(=O)c2c[nH]c(=O)c(C(N)=O)c2)c1`, the T/C (dose: 50.0 mg/kg/injection, schedule: Q04DX002 (ip), vehicle: saline with Tween-80) was 103 % of control, the T/C (dose: 100.0 mg/kg/injection, schedule: Q04DX002 (ip), vehicle: saline with Tween-80) was 94 % of control and the T/C (dose: 200.0 mg/kg/injection, schedule: Q04DX002 (ip), vehicle: saline with Tween-80) was 99 % of control.
`CC(=O)C[n+]1ccccc1C(c1ccccc1)c1ccccc1` was tested, and the T/C (dose: 12.5 mg/kg/injection, schedule: Q01DX005 (ip), vehicle: saline) was 101 % of control, the T/C (dose: 25.0 mg/kg/injection, schedule: Q01DX005 (ip), vehicle: saline) was 92 % of control and the T/C (dose: 50.0 mg/kg/injection, schedule: Q01DX005 (ip), vehicle: saline) was 101 % of control.
For `CCCCC(=O)NN`, the T/C [11] was 99 % of control, the T/C [12] was 103 % of control and the T/C [13] was 110 % of control. The T/C [1] was 100 % of control and the T/C [3] was 91 % of control.
With `Cc1cc(C)nc(NNc2nc(C)cc(C)n2)n1` the T/C [6] was 92 % of control, the T/C [1] was 91 % of control and the T/C [2] was 103 % of control. For the same compound, the T/C [3] was 95 % of control, the T/C [9] was 89 % of control and the T/C [4] was 95 % of control.
For `Cc1c2oc3c(C)ccc(C(=O)NCCCc4ccccc4)c3nc-2c(C(=O)NCCCc2ccccc2)c(N)c1=O`, the T/C (dose: 100.0 mg/kg/injection, schedule: Q04DX002 (ip), vehicle: DMSO) was 100 % of control and the T/C (dose: 200.0 mg/kg/injection, schedule: Q04DX002 (ip), vehicle: DMSO) was 90 % of control.
In the case of `Cc1[nH]c(C)c(C(=O)OC2CCN(C)CC2)c1C`, the T/C (dose: 6.25 mg/kg/injection, schedule: Q04DX003 (ip), vehicle: saline with Tween-80) was 103 % of control, the T/C [11] was 100 % of control and the T/C [12] was 91 % of control.
In the case of `CCOC(=O)/C(C#N)=C1\CCc2cc(OC)ccc21`, the T/C [14] was 92 % of control, the T/C (dose: 200.0 mg/kg/injection, schedule: Q01DX001 (ip), vehicle: saline with Tween-80) was 88 % of control and the T/C (dose: 400.0 mg/kg/injection, schedule: Q01DX001 (ip), vehicle: saline with Tween-80) was 88 % of control.
For `C/C(=N/N(C)C)c1nc(N)nc(N)c1-c1ccc(Cl)cc1`, the T/C (dose: 25.0 mg/kg/injection, schedule: Q01DX001 (ip), vehicle: saline with Tween-80) was 102 % of control, the T/C [15] was 109 % of control and the T/C [14] was 90 % of control and 96 % of control.
For `C[C@]12CC[C@@H]3c4ccc(Oc5nc(N6CC6)nc(N6CC6)n5)cc4CC[C@H]3[C@@H]1CCC2=O`, the T/C (dose: 3.12 mg/kg/injection, schedule: Q01DX009 (ip), vehicle: saline with Tween-80) was 91 % of control and the T/C [16] was 100 % of control.
With `CSc1nc(N)cc(NC(=O)CCl)n1` the T/C (dose: 25.0 mg/kg/injection, schedule: Q01DX009 (ip), vehicle: Klucel (hydroxypropylcellulose) (HPC)) was 113 % of control, the T/C (dose: 50.0 mg/kg/injection, schedule: Q01DX009 (ip), vehicle: Klucel (hydroxypropylcellulose) (HPC)) was 95 % of control and the T/C [5] was 100 % of control. The T/C [7] was 113 % of control, the T/C (dose: 100.0 mg/kg/injection, schedule: Q01DX009 (ip), vehicle: Klucel (hydroxypropylcellulose) (HPC)) was 122 % of control and the T/C [6] was 100 % of control. The T/C [8] was 118 % of control.
For `C(#CCN1CCCC1)CCCN1CCCC1`, the T/C [10] was 111 % of control, the T/C [5] was 92 % of control and the T/C [13] was 91 % of control. For the same compound, the T/C [6] was 92 % of control and the T/C [1] was 91 % of control.
`C=CCC(CC)C(=O)Cl` (stereo not given) was tested, and the T/C [6] was 109 % of control, the T/C [1] was 111 % of control and the T/C [2] was 100 % of control. For the same compound, the T/C [3] was 110 % of control, the T/C [9] was 100 % of control and the T/C [4] was 105 % of control and 110 % of control.
In the case of `CC(C)(C)[Si](OC(=O)N(CCCl)CCCl)(c1ccccc1)c1ccccc1`, the T/C [15] was 100 % of control and the T/C [14] was 118 % of control and 124 % of control.
In the case of `O=c1c2ccccc2c2nc3ccc4c(=O)c5ccccc5c5nc6ccc1c2c6c3c45`, the T/C (dose: 50.0 mg/kg/injection, schedule: Q01DX005 (ip), vehicle: saline with Tween-80) was 100 % of control and the T/C (dose: 100.0 mg/kg/injection, schedule: Q01DX005 (ip), vehicle: saline with Tween-80) was 100 % of control.
With `COc1ccccc1NC(N)=O` the T/C [1] was 105 % of control, the T/C [3] was 105 % of control and the T/C [4] was 100 % of control.
For `Clc1c(CBr)ccc(CBr)c1Cl`, the T/C [16] was 104 % of control, the T/C (dose: 6.25 mg/kg/injection, schedule: Q04DX003 (ip), vehicle: saline sonified) was 100 % of control and the T/C (dose: 12.5 mg/kg/injection, schedule: Q01DX009 (ip), vehicle: saline with Tween-80) was 114 % of control. The T/C (dose: 12.5 mg/kg/injection, schedule: Q04DX003 (ip), vehicle: saline sonified) was 90 % of control, the T/C [10] was 123 % of control and the T/C (dose: 25.0 mg/kg/injection, schedule: Q04DX003 (ip), vehicle: saline sonified) was 90 % of control.
For `CCCCCCC(=O)CC(SCC)c1ccc(Cl)cc1Cl` (stereo not given), the T/C [5] was 98 % of control, the T/C [6] was 104 % of control and the T/C [2] was 104 % of control.
